Here are results for 18 molecules from BindingDB's records for doi:10.7270/Q22V2DH9 (Nmmlsc, 2007).

This experiment deals with T1, N-formyl peptide receptor 2 (Homo sapiens, UniProt P25090).
T1 sequence (P25090 whole entry): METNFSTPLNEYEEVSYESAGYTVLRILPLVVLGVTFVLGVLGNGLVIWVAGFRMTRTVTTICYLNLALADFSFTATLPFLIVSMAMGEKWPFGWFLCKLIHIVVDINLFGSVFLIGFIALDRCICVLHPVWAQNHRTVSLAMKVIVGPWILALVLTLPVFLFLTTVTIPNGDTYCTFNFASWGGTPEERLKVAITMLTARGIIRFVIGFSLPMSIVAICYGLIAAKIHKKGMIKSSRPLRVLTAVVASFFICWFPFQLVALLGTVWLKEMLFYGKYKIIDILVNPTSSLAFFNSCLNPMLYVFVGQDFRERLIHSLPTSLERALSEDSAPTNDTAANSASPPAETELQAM
In words: FPRL1 fluorescent ligand binding inhibitors, dose response, selectivity assay for FPR1 ligand SAR project, cell-based, flow cytometry, Ki from IC50 (AID 723). (In general: A flow cytometer gives signals particle by particle.)

A word on the IC50: it is the point on the concentration scale where inhibition reaches its midpoint. Read a high IC50 as weaker potency in that assay. The molecule `O=C1C(=O)N(CCCn2ccnc2)C(c2cccnc2)C1C(=O)c1cc2ccccc2o1` (stereo not drawn) [3-(1-benzofuran-2-carbonyl)-4-hydroxy-1-(3-imidazol-1-ylpropyl)-2-pyridin-3-yl-2H-pyrrol-5-one] yielded a half-inhibitory concentration (IC50) of more than 66.7 µM.
The molecule `COc1ccc(OC)c(C2C(C(=O)c3ccc(C)cc3)C(=O)C(=O)N2CCC(=O)O)c1` (stereo not drawn) [3-[(3E)-2-(2,5-dimethoxyphenyl)-3-[(4-methylphenyl)-oxidanyl-methylidene]-4,5-bis(oxidanylidene)pyrrolidin-1-yl]propanoic acid] showed an IC50 of more than 66.7 µM.
As for `COc1ccc(C(=O)C2C(=O)C(=O)N(CCc3c[nH]c4ccccc34)C2c2ccc(C(C)C)cc2)cc1` (stereo not drawn), the figure is more than 66.7 µM.
On to `CC(C)C(=O)N(Cc1ccco1)S(=O)(=O)c1cccc2cccnc12` [N-(2-furanylmethyl)-2-methyl-N-(8-quinolinylsulfonyl)propanamide], for which the half-inhibitory concentration (IC50) is more than 66.7 µM.
In the case of `O=C1NC(c2ccc(Br)cc2)C(C(=O)c2ccc(Cl)cc2)C1=O` (stereo not drawn) [(4E)-5-(4-bromophenyl)-4-[(4-chlorophenyl)-hydroxy-methylene]pyrrolidine-2,3-quinone], the half-inhibitory concentration (IC50) is more than 66.7 µM.
The molecule `CCCCCCOc1cccc(N2C(=O)C(=O)C(C(=O)c3ccccc3)C2c2cccc(F)c2)c1` (stereo not drawn) [(4Z)-5-(3-fluorophenyl)-1-(3-hexoxyphenyl)-4-[hydroxy(phenyl)methylene]pyrrolidine-2,3-quinone] showed a concentration for half-maximal inhibition (IC50) of more than 66.7 µM.
Take `Cc1cccc(C2CC(=O)NC3=C2C(=O)CC(c2cccs2)C3)c1` (stereo not drawn) [4-(3-methylphenyl)-7-thiophen-2-yl-1,3,4,6,7,8-hexahydroquinoline-2,5-dione]: the half-inhibitory concentration (IC50) was more than 66.7 µM.
For the molecule `O=C1C(=O)N(CN2CCOCC2)C(c2ccc(Br)cc2)C1C(=O)c1ccccc1` (stereo not drawn) [(4E)-5-(4-bromophenyl)-1-(morpholin-4-ylmethyl)-4-[oxidanyl(phenyl)methylidene]pyrrolidine-2,3-dione], the half-maximal inhibitory concentration (IC50) was more than 66.7 µM.
Consider `Cc1nc2c(-c3ccc(Cl)cc3)c(C(F)(F)F)[nH]n2c(=O)c1Cc1ccccc1`, for which the half-inhibitory concentration (IC50) is more than 66.7 µM.
As for `COCCN1C(=O)C(=O)C(C(=O)c2ccccc2)C1c1ccccc1OC` (stereo not drawn) [(4E)-1-(2-methoxyethyl)-5-(2-methoxyphenyl)-4-[oxidanyl(phenyl)methylidene]pyrrolidine-2,3-dione], the IC50 was more than 66.7 µM.
As for `COc1ccccc1-c1c(C(F)(F)F)oc2cc(OC(=O)c3ccco3)ccc2c1=O`, the 50% inhibitory concentration (IC50) is more than 66.7 µM.
With `Cc1ccc(C(=O)C2C(=O)C(=O)N(Cc3cccnc3)C2c2ccc(Br)cc2)cc1` (stereo not drawn) [(4E)-5-(4-bromophenyl)-4-[(4-methylphenyl)-oxidanyl-methylidene]-1-(pyridin-3-ylmethyl)pyrrolidine-2,3-dione], the IC50 was more than 66.7 µM.
Molecule `COc1cc(C2C(C(C)=O)C(=O)C(=O)N2c2ccc(Br)cc2)ccc1O` (stereo not drawn) [1-(4-bromophenyl)-3-ethanoyl-2-(3-methoxy-4-oxidanyl-phenyl)-4-oxidanyl-2H-pyrrol-5-one] had a half-maximal inhibitory concentration (IC50) of more than 66.7 µM.
As for `COc1cc(C2C(C(=O)c3cc4ccccc4o3)C(=O)C(=O)N2CCN(C)C)ccc1O` (stereo not drawn) [3-(1-benzofuran-2-carbonyl)-1-[2-(dimethylamino)ethyl]-4-hydroxy-2-(4-hydroxy-3-methoxyphenyl)-2H-pyrrol-5-one], the IC50 is more than 66.7 µM.
Molecule `CCC(C)(C(=O)NC1CCCCC1)N(Cc1cccs1)C(C)=O` (stereo not drawn) [2-[acetyl(2-thenyl)amino]-N-cyclohexyl-2-methyl-butyramide] yielded a concentration for half-maximal inhibition (IC50) of more than 66.7 µM.
In the case of `O=C(O)CCCN1C(=O)C(=O)C(C(=O)c2ccccc2)C1/C=C/c1ccccc1` (stereo not drawn) [4-[(4E)-2,3-bis(oxidanylidene)-4-[oxidanyl(phenyl)methylidene]-5-[(E)-2-phenylethenyl]pyrrolidin-1-yl]butanoic acid] it was more than 66.7 µM; in that of `CCc1cc2c(=O)c(-c3nc4ccccc4n3C)c(C)oc2cc1OC(C)=O` [acetic acid [6-ethyl-2-methyl-3-(1-methyl-2-benzimidazolyl)-4-oxo-1-benzopyran-7-yl] ester], more than 66.7 µM; in that of `COc1ccc(OC)c(CNC(=O)Cn2c(=O)sc3ccccc32)c1` [N-(2,5-dimethoxybenzyl)-2-(2-keto-1,3-benzothiazol-3-yl)acetamide], more than 66.7 µM.
